Source: PMC9894841, “Characterisation of a cyclic peptide that binds to the RAS binding domain of phosphoinositide 3-kinase p110α” (Scientific Reports, 2023)
Several values for one entry are separate records, joined by “and”; a condition that tells them apart may be missing. Equal entries are not always repeated. Entries after “also recorded” stand apart in the source; their conditions may differ. Residues, ends and D or L forms follow the SMILES beside them.

Tests used:
p110α (p110α/p85α) = p110α (p110α/p85α) (Homo sapiens, UniProt P42336); experiment: Microscale thermophoresis (MST) binding to labelled p110α/p85α
Sm-KRAS/Lg-RBDα = target: T1, Sm-KRAS/Lg-RBDα (Homo sapiens, UniProt P42336); experiment: NanoBiT Biochemical Assay (NBBA) Sm-KRAS/Lg-RBDα; details: HEK293 cell lysate, 50 µM
T1 construct: Lg-BiT fused to the RBD of either p110α, p110 δ or p110γ; expressed in transfected cells; host or cells: HEK293 (lysate)
Description: We next sought to determine whether cyclo-CRVLIR binds specifically to p110α or if it can also interact with other PI3K isoforms. We chose the NBBA (NanoBiT Biochemical Assay), which was previously developed by our laboratory, as a tool to detect if cyclo-CRVLIR could inhibit the interaction of RAS with p110α, p110 δ and p110γ[36]. The NBBA is biochemical adaptation of the NanoBiT cellular assay that is based on the split luciferase NanoLuc system that uses separate Large-BiT (Lg-BiT) and Small-BiT (Sm-BiT) components, each fused to a protein of interest. When the Lg-BiT and Sm-BiT proteins are brought into close proximity, upon the binding of their cognate target proteins, they produce a luminescence signal. […] Cells were harvested at 48 h post-transfection and the cell lysates tested for the interaction of Sm-KRAS with each of the PI3K binding isoforms in the presence or absence of 50 µM cyclo-CRVLIR.
The production of the Sm-KRAS, and the Lg-RBD- of p110α, β, δ, γ constructs and lysate are described in detail in a previous report. The cell lysate was treated with 50 µM cyclo-CRVLIR for 20–30 min before detection by the addition of the Nano-Glo.

p110α = p110α (Homo sapiens, UniProt P42336); experiment: NMR STD and Water-LOGSY interaction with p110α; format: binding; details: 1 mM peptide, 8 µM p110α
Description: Here we chose Nuclear Magnetic Resonance (NMR) as an orthogonal technique to detect the cyclo-CRVLIR binding to p110α. We applied two commonly used NMR-based techniques that can detect protein/ compound interaction: STD (Saturation transfer difference), and Water-LOGSY (water-ligand observed through gradient spectroscopy)[34],[35].
NMR experiments were performed at 20 °C using a Bruker Avance IIIHD spectrometer operating at 700 MHz. STD experiments employed off-resonance saturation (2 s) at − 40 ppm, and on-resonance at − 1 ppm. Waterlogsy experiments used a mixing time of 1.5 s.

H1373 cells = experiment: Western blot of phospho-AKT / phospho-ERK in H1373 cells; format: cell-based, human; details: 4 h
H1792 cells = experiment: Western blot of phospho-AKT / phospho-ERK in H1792 cells; format: cell-based, human; details: 4 h
Description: We treated the human lung cancer cell line H1792, growing at steady-state in Roswell Park Memorial Institute (RPMI) 1640 media with 10% Foetal Calf Serum (FCS), with the seven cyclic peptides at three different concentrations (2, 10 and 50 µM) for 4 h. After treatment we measured the effect of the peptides on the phosphorylation levels of AKT (pAKT-Ser473), a key downstream effector of p110α activity. […] In contrast, the phosphorylation levels of ERK (p-ERK), which is a downstream effector of the RAS/RAF/MEK/ERK pathway and is independent of p110α activity, were not affected.
The next day, 1 ml of medium was removed and the cells were treated with different peptide concentrations for 4 h. All peptides were dissolved in 25 mM Tris pH8, 100 mM NaCl and 1 mM TCEP. Cells were then harvested and lysed for SDS-PAGE and western blot analysis. Anti-calnexin antibody was obtained from Abcam. Antibodies directed against phospho-T202/Y204-ERK, ERK, phospho-S473-AKT and AKT were obtained from Cell Signaling. After western blotting, calnexin, AKT and phospho-AKT signals were quantified using ImageJ and statistical tests were done using Prism software.

[1] = Solubility of the peptides (in words); format: physicochemical
p110α/KRAS interaction = p110α/KRAS interaction (Homo sapiens, UniProt P42336); experiment: MST competition assay of the p110α/KRAS interaction; format: binding; details: 20 µM peptide
Description: We next wanted to test whether the cyclo-CRVLIR peptide is capable of inhibiting the p110α/KRAS interaction.
Measurements were performed using a NanoTemper Monolith™ NT.115 instrument (NanoTemper Technologies GmbH, München, Germany). Protein samples were labelled with the amine reactive dye NT-647 (or NT-495) using the Monolith™ NT.115 Protein Labeling Kit RED-NHS (or Monolith™ NT.115 Protein Labeling Kit BLUE-NHS). Labelling levels (generally in the range 0.3–0.4 dye molecules per protein molecule) were determined using calculated extinction coefficients for the protein and ε647 = 250,000 M^−1 cm^−1 (or ε495 = 70,000 M^−1 cm^−1) for the dye concentration. In a typical experiment […] aliquots of a 100 nM stock solution of labelled protein were mixed with […] aliquots of a serial dilution of binding partner. These solutions were then loaded into standard treated capillaries and MST measurements were performed at 25 °C using 20–40% LED power and 40–60% IR-Laser power. The laser Laser-On time was 30 s and Laser-Off time 5 s. All measurements were performed at least five times.

Sequence of p110α (p110α/p85α) (P42336 whole entry, species assumed): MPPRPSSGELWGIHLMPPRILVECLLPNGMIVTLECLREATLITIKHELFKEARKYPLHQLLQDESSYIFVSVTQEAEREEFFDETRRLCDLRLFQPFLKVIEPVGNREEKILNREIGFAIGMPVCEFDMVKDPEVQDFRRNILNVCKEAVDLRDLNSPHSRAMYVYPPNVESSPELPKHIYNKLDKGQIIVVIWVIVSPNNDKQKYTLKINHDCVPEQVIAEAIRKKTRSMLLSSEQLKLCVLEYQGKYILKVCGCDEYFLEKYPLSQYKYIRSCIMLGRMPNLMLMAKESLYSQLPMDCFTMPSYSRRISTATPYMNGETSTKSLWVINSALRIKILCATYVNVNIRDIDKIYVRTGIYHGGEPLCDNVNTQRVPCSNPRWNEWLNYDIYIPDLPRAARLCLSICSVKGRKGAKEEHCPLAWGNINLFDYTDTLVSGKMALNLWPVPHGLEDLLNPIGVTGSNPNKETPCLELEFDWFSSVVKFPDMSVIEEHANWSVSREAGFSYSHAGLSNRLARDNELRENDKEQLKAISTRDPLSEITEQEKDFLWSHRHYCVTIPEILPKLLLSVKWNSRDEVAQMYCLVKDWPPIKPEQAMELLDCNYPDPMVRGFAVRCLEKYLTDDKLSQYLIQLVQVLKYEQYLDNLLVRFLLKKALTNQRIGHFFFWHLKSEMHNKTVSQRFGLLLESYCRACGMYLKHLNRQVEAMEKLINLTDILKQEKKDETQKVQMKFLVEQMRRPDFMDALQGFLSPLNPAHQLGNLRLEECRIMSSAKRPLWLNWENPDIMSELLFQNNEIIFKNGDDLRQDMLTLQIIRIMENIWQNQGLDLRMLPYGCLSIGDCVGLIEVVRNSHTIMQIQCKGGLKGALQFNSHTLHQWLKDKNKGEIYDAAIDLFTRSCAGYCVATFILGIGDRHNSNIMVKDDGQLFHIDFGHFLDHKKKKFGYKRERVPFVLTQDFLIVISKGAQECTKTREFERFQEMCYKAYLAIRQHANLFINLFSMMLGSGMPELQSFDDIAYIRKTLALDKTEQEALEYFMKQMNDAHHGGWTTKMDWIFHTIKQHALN
Sequence of p110α (p110α/p85α) (P27986 whole entry partner, species assumed): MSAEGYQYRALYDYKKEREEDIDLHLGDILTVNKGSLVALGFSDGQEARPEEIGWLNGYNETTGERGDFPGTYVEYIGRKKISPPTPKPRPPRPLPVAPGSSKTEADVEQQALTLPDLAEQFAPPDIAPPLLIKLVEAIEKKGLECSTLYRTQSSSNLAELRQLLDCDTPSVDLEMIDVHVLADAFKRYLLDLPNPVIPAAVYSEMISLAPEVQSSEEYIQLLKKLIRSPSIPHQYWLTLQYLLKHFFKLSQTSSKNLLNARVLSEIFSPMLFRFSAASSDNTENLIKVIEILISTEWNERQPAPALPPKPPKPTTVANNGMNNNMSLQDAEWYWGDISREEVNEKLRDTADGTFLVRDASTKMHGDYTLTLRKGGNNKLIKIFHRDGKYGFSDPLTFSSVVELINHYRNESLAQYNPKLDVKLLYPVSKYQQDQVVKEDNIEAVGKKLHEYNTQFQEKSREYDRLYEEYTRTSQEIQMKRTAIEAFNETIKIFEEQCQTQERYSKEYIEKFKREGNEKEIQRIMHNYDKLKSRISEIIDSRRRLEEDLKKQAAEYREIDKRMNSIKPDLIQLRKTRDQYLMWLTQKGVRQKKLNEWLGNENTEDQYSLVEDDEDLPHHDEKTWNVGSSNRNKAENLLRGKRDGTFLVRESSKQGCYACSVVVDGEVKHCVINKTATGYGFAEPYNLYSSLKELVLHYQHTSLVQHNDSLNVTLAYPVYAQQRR
Sequence of p110α/KRAS interaction (P42336 whole entry, species assumed): as the sequence (P42336 whole entry, species assumed) above
Sequence of p110α/KRAS interaction (P27986 whole entry partner, species assumed): as the sequence (P27986 whole entry partner, species assumed) above
T1 sequence (P42336 187-289 limits assumed): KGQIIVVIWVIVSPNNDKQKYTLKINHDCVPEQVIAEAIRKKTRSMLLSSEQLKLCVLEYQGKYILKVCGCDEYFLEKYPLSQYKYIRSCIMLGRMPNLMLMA
Sequence of p110α (P42336 whole entry, species assumed): as the sequence (P42336 whole entry, species assumed) above
Sequence of p110α (P27986 whole entry partner, species assumed): as the sequence (P27986 whole entry partner, species assumed) above

increase in affinity for p110α over cyclo-CRVLAA (p110α (p110α/p85α); MST): ~120 fold
Kd (p110α (p110α/p85α); labelled protein 100 nM, 25 °C): 2900 nM and 3000 nM
interaction with p110α by STD and Water-LOGSY NMR (p110α): clear signal of interaction
SMILES: CC[C@H](C)[C@@H]1NC(=O)[C@H](CC(C)C)NC(=O)[C@H](C(C)C)NC(=O)[C@H](CCCNC(=N)N)NC(=O)[C@H](CS)NC(=O)[C@H](CCCNC(=N)N)NC1=O [cyclo-CRVLIR, Cyclo-CRVLIR] (cyclo(CRVLIR))
inhibition of the Sm-KRAS/Lg-RBDα interaction signal (Sm-KRAS/Lg-RBDα): reduction in the interaction signal; also recorded: able to inhibit
effect on phospho-AKT (pAKT-S473) levels (H1373 cells; H1373 cells, 4, 20 and 100 µM): inhibition of pAKT; also recorded: reduces the levels of pAKT
effect on phosphorylation levels of ERK (p-ERK) (H1373 cells; H1373 cells): not affected
effect on phosphorylation levels of ERK (p-ERK) (H1792 cells): not affected
effect on phospho-AKT (pAKT-Ser473) levels (H1792 cells; RPMI 1640 10% FCS, 2, 10 and 50 µM (also 4, 20 and 100 µM)): dose dependent effect; also recorded: reduces the levels of pAKT
solubility in words [1]: more soluble than the parent peptide cyclo-CRVLAA; also recorded: significantly more soluble than our original cyclo-CRVLAA peptide
p110α/KRAS interaction in the presence of the peptide (p110α/KRAS interaction): blocked; also recorded: did not detect the p110α/KRAS interaction; also recorded: inhibits the p110α/RAS interaction
